According to PMC9098913, “In vitro reconstitution of Escherichia coli divisome activation” (Nature Communications, 2022):

Assay: Diffusion coefficient (Dcoeff) of FtsA from FRAP
Conditions: for Diffusion Coefficient, mean: Fig. 3j
Description: We could also use the data from these bleaching experiments to quantify the membrane-binding kinetics and diffusion of membrane-bound proteins by analysing the change of the fluorescence profile during recovery.
Equimolar concentrations of Cy3- and Cy5-labelled FtsA, supplemented with 20% unlabelled FtsA were used to study FRET and FRAP. Five pre-bleach frames were acquired, followed by acceptor photobleaching of a rectangular ROI with 40% 641 nm laser power and a dwell size of 1 µs/pixel, 75% overlapping lines. The recovery of the signal or the increase in donor intensity were measured with either two frames or one frame per second.
Bleaching the acceptor dye leads to an increase in the donor intensity, which can be used to quantify the Foerster Resonance energy transfer (FRET)[48]. FRET efficiency was quantified with E%=Ipost/Ipost+Ipre⋅100 , where Ipost is the intensity of the […] and Ipre is the […]. […] To extract the contribution of both processes, we adjusted a routine recently published by Gerganova et al.[33]. In short, the code provides the contribution of both modes of recovery by analysing the shape of the fluorescence recovery profile. […] Contribution of diffusion leads to a change of the slope of the outer borders of the bleached region (S4h right). Thus, by measuring the change of the slope of the border recovery, diffusion and simple on/off binding can be distinguished. We developed “FRAPdiff”, a graphical user interface, which uses the original fit routine by David Rutkowski. It can be used directly on.tiff movies with annotated bleach regions as ImageJ ROIs. In addition, we added optional bleach correction, user selectable projection axis (x or y), and optional mirroring of the recovery profiles, if bleaching was not symmetric. The original fit routine for estimating the recovery and diffusion dynamics can be found at https://github.com/davidmrutkowski/1DReflectingDiffusion. FRAPdiff is available at 10.5281/zenodo.6400639[49] under the GPLv3 open-source license.

## FtsA WT: wild-type E. coli actin-homologue FtsA, membrane anchor of FtsZ
0.1 µM FtsA + N
  Diffusion Coefficient, mean: 1.61E-02 µm2/s
0.1 µM FtsA + Z&N
  Diffusion Coefficient, mean: 1.18E-02 µm2/s
0.1 µM FtsA + Z
  Diffusion Coefficient, mean: 1.69E-02 µm2/s
0.1µM FtsA alone, Mean, n=18 (WT), 6 (R286W)
  Diffusion Coefficient: 0.0268
0.1 µM FtsA alone
  Diffusion Coefficient, mean: 2.68E-02 µm2/s
0.1µM FtsA alone, replicate Exp.1
  Diffusion Coefficient: 5.58E-02
0.1µM FtsA alone, replicate Exp.10
  Diffusion Coefficient: 2.60E-03
0.1µM FtsA alone, replicate Exp.11
  Diffusion Coefficient: 5.85E-03
0.1µM FtsA alone, replicate Exp.12
  Diffusion Coefficient: 4.68E-03
0.1µM FtsA alone, replicate Exp.13
  Diffusion Coefficient: 4.29E-02
0.1µM FtsA alone, replicate Exp.14
  Diffusion Coefficient: 3.12E-02
0.1µM FtsA alone, replicate Exp.15
  Diffusion Coefficient: 2.09E-02
0.1µM FtsA alone, replicate Exp.16
  Diffusion Coefficient: 1.45E-02
0.1µM FtsA alone, replicate Exp.17
  Diffusion Coefficient: 4.66E-02
0.1µM FtsA alone, replicate Exp.18
  Diffusion Coefficient: 2.25E-02
0.1µM FtsA alone, replicate Exp.2
  Diffusion Coefficient: 3.42E-03
0.1µM FtsA alone, replicate Exp.3
  Diffusion Coefficient: 1.87E-02
0.1µM FtsA alone, replicate Exp.4
  Diffusion Coefficient: 5.22E-02
0.1µM FtsA alone, replicate Exp.5
  Diffusion Coefficient: 2.45E-02
0.1µM FtsA alone, replicate Exp.6
  Diffusion Coefficient: 4.34E-02
0.1µM FtsA alone, replicate Exp.7
  Diffusion Coefficient: 4.83E-02
0.1µM FtsA alone, replicate Exp.8
  Diffusion Coefficient: 3.63E-02
0.1µM FtsA alone, replicate Exp.9
  Diffusion Coefficient: 8.38E-03
0.1µM, + FtsN&Z, Mean, n=5 (WT), 3 (R286W)
  Diffusion Coefficient: 0.0118
0.1µM, + FtsN&Z, replicate Exp.1
  Diffusion Coefficient: 3.37E-03
0.1µM, + FtsN&Z, replicate Exp.2
  Diffusion Coefficient: 5.52E-03
0.1µM, + FtsN&Z, replicate Exp.3
  Diffusion Coefficient: 9.34E-03
0.1µM, + FtsN&Z, replicate Exp.4
  Diffusion Coefficient: 2.03E-02
0.1µM, + FtsN&Z, replicate Exp.5
  Diffusion Coefficient: 2.02E-02
0.1µM, + FtsN, Mean, n=5 (WT), 3 (R286W)
  Diffusion Coefficient: 0.0161
0.1µM, + FtsN, replicate Exp.1
  Diffusion Coefficient: 2.03E-02
0.1µM, + FtsN, replicate Exp.2
  Diffusion Coefficient: 6.39E-04
0.1µM, + FtsN, replicate Exp.3
  Diffusion Coefficient: 1.18E-02
0.1µM, + FtsN, replicate Exp.4
  Diffusion Coefficient: 1.64E-02
0.1µM, + FtsN, replicate Exp.5
  Diffusion Coefficient: 3.14E-02
0.1µM, + FtsZ, Mean, n=8 (WT), 4 (R286W)
  Diffusion Coefficient: 0.0169
0.1µM, + FtsZ, replicate Exp.1
  Diffusion Coefficient: 1.01E-02
0.1µM, + FtsZ, replicate Exp.2
  Diffusion Coefficient: 2.79E-03
0.1µM, + FtsZ, replicate Exp.3
  Diffusion Coefficient: 1.71E-02
0.1µM, + FtsZ, replicate Exp.4
  Diffusion Coefficient: 3.53E-02
0.1µM, + FtsZ, replicate Exp.5
  Diffusion Coefficient: 2.97E-02
0.1µM, + FtsZ, replicate Exp.6
  Diffusion Coefficient: 3.44E-03
0.1µM, + FtsZ, replicate Exp.7
  Diffusion Coefficient: 2.52E-02
0.1µM, + FtsZ, replicate Exp.8
  Diffusion Coefficient: 1.14E-02
0.2 µM FtsA + N
  Diffusion Coefficient, mean: 1.32E-02 µm2/s
0.2 µM FtsA + Z&N
  Diffusion Coefficient, mean: 7.76E-03 µm2/s
0.2 µM FtsA + Z
  Diffusion Coefficient, mean: 8.12E-03 µm2/s
0.2µM FtsA alone, Mean, n=24 (WT), 6 (R286W)
  Diffusion Coefficient: 0.0177
0.2 µM FtsA alone
  Diffusion Coefficient, mean: 1.77E-02 µm2/s
0.2µM FtsA alone, replicate Exp.1
  Diffusion Coefficient: 1.00E-02
0.2µM FtsA alone, replicate Exp.10
  Diffusion Coefficient: 2.11E-07
0.2µM FtsA alone, replicate Exp.11
  Diffusion Coefficient: 2.08E-02
0.2µM FtsA alone, replicate Exp.12
  Diffusion Coefficient: 4.11E-02
0.2µM FtsA alone, replicate Exp.13
  Diffusion Coefficient: 2.52E-02
0.2µM FtsA alone, replicate Exp.14
  Diffusion Coefficient: 2.77E-02
0.2µM FtsA alone, replicate Exp.15
  Diffusion Coefficient: 1.77E-05
0.2µM FtsA alone, replicate Exp.16
  Diffusion Coefficient: 1.11E-02
0.2µM FtsA alone, replicate Exp.17
  Diffusion Coefficient: 1.44E-03
0.2µM FtsA alone, replicate Exp.18
  Diffusion Coefficient: 2.14E-02
0.2µM FtsA alone, replicate Exp.19
  Diffusion Coefficient: 1.18E-02
0.2µM FtsA alone, replicate Exp.2
  Diffusion Coefficient: 4.63E-02
0.2µM FtsA alone, replicate Exp.20
  Diffusion Coefficient: 1.47E-02
0.2µM FtsA alone, replicate Exp.21
  Diffusion Coefficient: 5.71E-03
0.2µM FtsA alone, replicate Exp.22
  Diffusion Coefficient: 9.23E-03
0.2µM FtsA alone, replicate Exp.23
  Diffusion Coefficient: 4.39E-06
0.2µM FtsA alone, replicate Exp.24
  Diffusion Coefficient: 1.05E-03
0.2µM FtsA alone, replicate Exp.3
  Diffusion Coefficient: 3.82E-02
0.2µM FtsA alone, replicate Exp.4
  Diffusion Coefficient: 2.69E-04
0.2µM FtsA alone, replicate Exp.5
  Diffusion Coefficient: 3.65E-02
0.2µM FtsA alone, replicate Exp.6
  Diffusion Coefficient: 2.63E-02
0.2µM FtsA alone, replicate Exp.7
  Diffusion Coefficient: 1.83E-02
0.2µM FtsA alone, replicate Exp.8
  Diffusion Coefficient: 5.09E-02
0.2µM FtsA alone, replicate Exp.9
  Diffusion Coefficient: 5.70E-03
0.2µM, + FtsN&Z, Mean, n=8 (WT), 6 (R286W)
  Diffusion Coefficient: 0.0078
0.2µM, + FtsN&Z, replicate Exp.1
  Diffusion Coefficient: 1.04E-02
0.2µM, + FtsN&Z, replicate Exp.2
  Diffusion Coefficient: 2.82E-03
0.2µM, + FtsN&Z, replicate Exp.3
  Diffusion Coefficient: 5.82E-03
0.2µM, + FtsN&Z, replicate Exp.4
  Diffusion Coefficient: 1.62E-02
0.2µM, + FtsN&Z, replicate Exp.5
  Diffusion Coefficient: 5.88E-03
0.2µM, + FtsN&Z, replicate Exp.6
  Diffusion Coefficient: 3.75E-03
0.2µM, + FtsN&Z, replicate Exp.7
  Diffusion Coefficient: 5.36E-03
0.2µM, + FtsN&Z, replicate Exp.8
  Diffusion Coefficient: 1.18E-02
0.2µM, + FtsN, Mean, n=7 (WT), 4 (R286W)
  Diffusion Coefficient: 0.0132
0.2µM, + FtsN, replicate Exp.1
  Diffusion Coefficient: 1.41E-02
0.2µM, + FtsN, replicate Exp.2
  Diffusion Coefficient: 1.35E-02
0.2µM, + FtsN, replicate Exp.3
  Diffusion Coefficient: 8.81E-03
0.2µM, + FtsN, replicate Exp.4
  Diffusion Coefficient: 1.88E-02
0.2µM, + FtsN, replicate Exp.5
  Diffusion Coefficient: 1.36E-02
0.2µM, + FtsN, replicate Exp.6
  Diffusion Coefficient: 1.15E-02
0.2µM, + FtsN, replicate Exp.7
  Diffusion Coefficient: 1.21E-02
0.2µM, + FtsZ, Mean, n=7 (WT), 6 (R286W)
  Diffusion Coefficient: 0.0081
0.2µM, + FtsZ, replicate Exp.1
  Diffusion Coefficient: 8.42E-03
0.2µM, + FtsZ, replicate Exp.2
  Diffusion Coefficient: 4.10E-03
0.2µM, + FtsZ, replicate Exp.3
  Diffusion Coefficient: 4.88E-04
